Laboratory results reported in patent US20230390277A1, “METHODS TO SENSITIZE TUMORS TO TREATMENT BY IMMUNOTHERAPY” (Ohio State Innovation Foundation, priority 2020, published 2023).
Blank lines part the entries; values can stand above or below the compound they belong to. Residues, ends and D or L forms follow the SMILES beside them. *: point of attachment. Cbz = O=C(OCc1ccccc1)*

Key:
[1] = system: MP2 pODD flank tumors; experiment: in vivo bioluminescent imaging, heterotopic MP2 pODD flank tumors; design: species or system mouse
Protocol: In vivo bioluminescent imaging. […] For heterotopic flank tumor experiments, 1×10^6 HeLa pODD or 5×10^6 MP2 cells were injected subcutaneously (s.c.) into the flanks of 6-wk-old female (HeLa pODD) or male (N1P2 pODD or MP2 CMV) immunocompromised athymic nu/nu mice. Replicate experiments with groups of 4-6 mice were used for statistical reproducibility. Caliper measurements of opposing diameters were used to calculate the tumor volumes using the modified ellipsoidal formula: tumor volume=(length×width^2)[23]. Upon reaching 100 mm^3, the animals were given 100 mg/kg D-luciferin intraperitoneally and bioluminescence images were captured using IVIS In Vivo Imaging System Lumina II (Perkin Elmer Inc). […] Bioluminescent data were analyzed using living Image software (Perkin Elmer Inc) and calculated as photon flux/sec. Obtained individual photon flux peak values were then normalized to baseline for each mouse and averaged per group. Gas inhalation experiments were performed by switching medical air and carbogen gas sources for the IVIS anesthesia vaporizer. Initial baselines were established in medical air under anesthesia, then the mice were subjected to 30 minutes of either medical air or carbogen rebreathing in an air-tight chamber while awake. After 30 minutes, photon flux was established in respective gas sources as a carrier for isoflurane anesthesia.

[2] = system: pODD-Luc reporter in MP2 pODD cells; experiment: in vitro luciferase assay, MP2 pODD cells; format: cell-based, human; conditions: one hour of 10 μM
Protocol: PCR-amplified cassette was then digested with Asci and Pmel restriction enzymes and ligated into pLenti-C-Myc-DDK-IRES-Puro. Correct orientation and sequence was confirmed by Sanger DNA sequencing. HeLa pODD and MIP2 pODD transfectants were selected with 2 μg/ml Puromycin for two weeks. Stable MP2 CMV Cells were generated by lentiviral transduction of MP2 cells with pLenti-CMV-Puro-Luc lentiviral vector (Addgene#17477) with 2 Puromycin selection for two weeks. Cells were grown in Dulbecco's Modified Eagle's Medium (DMEM) containing 25 mM D-glucose, 4 mM glutamine and 44 mM sodium bicarbonate in 5% CO2, if not stated otherwise. The cells were exposed to hypoxia (1% O2) in H35 Hypoxic Workstation (Hypoxygen) with 5% CO2 at 37° C. In some experiments, we used a hypoxia mimetic dimethyloxalyglycine (DMOG) as described. Cell counts and cellular proliferation were established using hemocytometer to determine the cell number and trypan blue exclusion assay to establish the fraction of viable/dead cells. All human cell lines have been authenticated using STR profiling within the past 3 years. All experiments were performed with mycoplasma-free cells.
In vitro luciferase Assay. Proteins were extracted using Luciferase Assay Lysis Buffer (125 mM Tris-HCl, pH 7.5, 11.0 mM DTT, 10 mM EGTA, 50% Glycerol, 5% Triton X-100) and 200 μl/sample were transferred to 96-well plate and D-luciferin was added to the final concentration of 150 μg/ml immediately before the assay. Bioluminescence was measured on a Synergy H1 Hybrid Plate Reader (Biotek) after a 10-minute incubation period (10 slsample, Gain=150) in triplicates.

[3] = molecular target: T1, PDE10A (Homo sapiens, UniProt Q9Y233); experiment: PDE10A purified enzyme activity assay (BPS Bioscience); format: biochemical; conditions: for PDE inhibition IC25: dose response analysis
T1 construct: purchased BPS Bioscience
T1 sequence (Q9Y233 whole entry): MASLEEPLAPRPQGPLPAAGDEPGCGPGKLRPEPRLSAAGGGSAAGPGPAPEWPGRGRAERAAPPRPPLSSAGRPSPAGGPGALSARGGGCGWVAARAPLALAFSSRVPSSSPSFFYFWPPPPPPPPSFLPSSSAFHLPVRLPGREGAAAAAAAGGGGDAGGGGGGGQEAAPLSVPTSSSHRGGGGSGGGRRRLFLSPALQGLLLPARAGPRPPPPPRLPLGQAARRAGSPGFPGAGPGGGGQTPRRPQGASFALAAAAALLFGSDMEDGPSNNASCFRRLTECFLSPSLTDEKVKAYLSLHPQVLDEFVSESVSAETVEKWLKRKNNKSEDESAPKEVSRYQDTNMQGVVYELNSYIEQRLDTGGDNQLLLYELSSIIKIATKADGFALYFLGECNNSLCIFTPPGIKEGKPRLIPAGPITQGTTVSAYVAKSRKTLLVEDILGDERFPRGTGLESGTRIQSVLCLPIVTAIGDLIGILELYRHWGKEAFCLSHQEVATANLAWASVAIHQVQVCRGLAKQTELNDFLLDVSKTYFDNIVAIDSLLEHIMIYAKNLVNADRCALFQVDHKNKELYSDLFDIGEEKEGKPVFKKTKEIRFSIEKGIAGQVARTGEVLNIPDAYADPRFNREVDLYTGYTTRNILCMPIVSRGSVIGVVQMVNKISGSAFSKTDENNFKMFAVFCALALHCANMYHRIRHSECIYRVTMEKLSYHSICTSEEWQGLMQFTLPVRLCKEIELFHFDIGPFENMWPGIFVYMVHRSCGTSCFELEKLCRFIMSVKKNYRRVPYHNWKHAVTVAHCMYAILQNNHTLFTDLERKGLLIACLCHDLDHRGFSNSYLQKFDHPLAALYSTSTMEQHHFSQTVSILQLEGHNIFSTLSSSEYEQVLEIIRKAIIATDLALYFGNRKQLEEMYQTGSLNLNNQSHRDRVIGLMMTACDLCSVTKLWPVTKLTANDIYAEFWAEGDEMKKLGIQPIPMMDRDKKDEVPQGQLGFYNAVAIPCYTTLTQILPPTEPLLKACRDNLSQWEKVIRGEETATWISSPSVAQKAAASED
Text: We therefore defined the structure activity relationship (SAR) of PPV relative to two assays: inhibition of cellular OCR by Seahorse XE assay, and inhibition of PDE10A by purified enzyme activity (PDE10A activity assay, BPS Bioscience). […] Because the top portion of PPV was a planar structure like that of rotenone, we decided to focus our attention on the lower portion of the molecule.

[4] = system: orthotopic MP2 pODD tumors; experiment: in vivo bioluminescent imaging, orthotopic MP2 pODD tumors; design: species or system mouse; conditions: 2 mg/kg, tail vein
Protocol: Orthotopic Panreatic Xenografts. MP2 PD AC cells (1×10^6) or the indicated derivates were implanted in immune-deficient athymic nu/nu mice following fACLIC approved protocols. Briefly, an incision was placed in the right flank of anesthetized animals the spleen and pancreas liberated. Cells were mixed 1:1 with Matfigel and implanted in the tail of the pancreas in 10 μl. Incision was sutured in 2 layers, animals given long lasting analgesics, and allowed to recover from anesthesia. Mice were returned to housing for post-op care and monitored daily for 4 days. Animals were checked weekly after that by palpation to determine tumor growth.
In vivo bioluminescent imaging. All animal experiments were performed according to protocols approved by the OSU institutional IAGLIC review (protocol #201200000124-R2), with daily veterinarian observation. For heterotopic flank tumor experiments, 1×10^6 HeLa pODD or 5×10^6 MP2 cells were injected subcutaneously (s.c.) into the flanks of 6-wk-old female (HeLa pODD) or male (N1P2 pODD or MP2 CMV) immunocompromised athymic nu/nu mice. […] Mice were anesthetized with 1.5% isoflurane and bioluminescence was measured every two minutes for the period of 25 minutes to identify peak response of each mouse to D-luciferin. Bioluminescent data were analyzed using living Image software (Perkin Elmer Inc) and calculated as photon flux/sec. […]

[5] = system: MC38 colorectal tumor; experiment: MC38 colorectal tumors in C57Bl6 mice, sensitization to anti PD-1; format: in vivo, mouse
Protocol: MC38 tumors grown in C57B16 mice were treated as indicated with irrelevant antibody, anti PD-1, or anti PD-1 after PPV or SMV32 n=5-7, P=<0.05* for PPV and <0.01** for SMV32.
Papaverine and SMV32 enhance PD-1 checkpoint blockade immunotherapy for cancer treatment. Because of the literature describing the immunomodulatory effects of hypoxia^(24-27), we hypothesized that reducing hypoxia may also enhance tumor lymphocyte infiltration and function and improve immune-mediated tumor cell killing. As those of skill in the art recognize, there is a large body of literature and research on increase the supply side of the hypoxia equation, but it has been heretofore an unexpected approach to decrease the tri demand side of the hypoxia equation. We tested tumors grown from the relatively immune-sensitive syngeneic MC38 colorectal tumor line in immuno-competent C5713116 mice. […] In a second cohort, we implanted 1×10^6 cells/mouse and after 5 days, when tumors were 50-100 mm^3, they were randomized into four groups. Therapy was started with either control rat IgG antibody, or a suboptimal dose of anti PD-1(CD279) blocking monoclonal antibody (BioXCell, clone 29F.1A12, 100 μg ip every 3 days).

[6] = molecular target: ETC complex 1 (C1) (Homo sapiens, UniProt O75251+O75306+P03886); experiment: inhibition of cellular OCR by Seahorse XE assay; format: cell-based; conditions: for C1 inhibitor selectivity: vs PDE10A
Sequence of ETC complex 1 (C1) (O75251 39-213): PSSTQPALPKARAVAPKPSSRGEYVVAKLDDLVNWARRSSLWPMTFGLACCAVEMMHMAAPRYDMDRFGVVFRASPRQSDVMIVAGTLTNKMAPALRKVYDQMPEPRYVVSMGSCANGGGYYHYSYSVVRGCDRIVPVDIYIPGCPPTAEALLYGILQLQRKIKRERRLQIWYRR
Sequence of ETC complex 1 (C1) (O75306 34-463): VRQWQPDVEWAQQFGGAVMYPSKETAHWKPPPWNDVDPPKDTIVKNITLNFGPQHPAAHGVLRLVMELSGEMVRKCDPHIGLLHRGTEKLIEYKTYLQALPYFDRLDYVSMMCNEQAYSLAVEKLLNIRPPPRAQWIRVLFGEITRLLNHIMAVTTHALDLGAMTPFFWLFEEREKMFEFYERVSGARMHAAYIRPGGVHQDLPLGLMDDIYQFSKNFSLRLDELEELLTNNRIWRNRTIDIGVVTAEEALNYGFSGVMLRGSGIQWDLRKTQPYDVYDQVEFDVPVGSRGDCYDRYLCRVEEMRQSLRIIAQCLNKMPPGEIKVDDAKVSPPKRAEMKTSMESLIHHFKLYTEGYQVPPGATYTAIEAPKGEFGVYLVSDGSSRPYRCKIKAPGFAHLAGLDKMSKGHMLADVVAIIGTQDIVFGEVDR
Sequence of ETC complex 1 (C1) (P03886 whole entry): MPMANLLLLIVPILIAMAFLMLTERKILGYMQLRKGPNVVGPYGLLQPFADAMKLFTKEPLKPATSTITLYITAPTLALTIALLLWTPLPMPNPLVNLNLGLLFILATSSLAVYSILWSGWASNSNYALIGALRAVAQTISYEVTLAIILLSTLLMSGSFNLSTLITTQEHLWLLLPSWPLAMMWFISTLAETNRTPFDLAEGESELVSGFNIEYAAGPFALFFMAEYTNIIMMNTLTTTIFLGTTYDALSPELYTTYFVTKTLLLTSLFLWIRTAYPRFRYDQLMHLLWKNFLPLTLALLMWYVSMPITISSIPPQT
Text: PPVs PDE and mitochondrial activities are chemically separable. Papaverine has been traditionally thought to be effective as a vasodilator for the treatment of conditions including erectile dysfunction because it can inhibit PDE10A (like PDE 5 inhibitors sildenafil and tadalafil). However, PDE inhibition is not responsible for OCR effects in vitro, so we postulated that there are two activities in PPV, one inhibiting ETC complex 1 (C1) and one inhibiting PDE10A that may reside in different parts of the molecule. We therefore defined the structure activity relationship (SAR) of PPV relative to two assays: inhibition of cellular OCR by Seahorse XE assay, and inhibition of PDE10A by purified enzyme activity (PDE10A activity assay, BPS Bioscience). Because PPV can compete with rotenone at complex 1 (23), we reasoned that they may be binding the same site and therefore the structures would be similar relative to their target. Because the top portion of PPV was a planar structure like that of rotenone, we decided to focus our attention on the lower portion of the molecule.

[7] = system: murine tumors; experiment: murine tumor hypoxia and radiation response; conditions: mouse, in vivo
[8] = system: CMT167 flank lung tumors; experiment: CMT167 flank lung tumors in C57Bl6 mice, sensitization to anti PD-1; format: in vivo, mouse
Protocol: C57B16 mice bearing CMT167 flank lung tumors were treated as indicated on days 10 and 13 and relative volume followed.
There are reports in the literature indicating ways that hypoxia affects immune functions of lymphocytes, MDSCs and T regulatory cells infiltrating in the tumor.

[9] = system: LLC tumor; experiment: Lewis Lung Carcinoma (LLC) PD-1 blockade resistant tumor model; format: in vivo, mouse
Protocol: LLC tumor bearing mice were treated as indicated on days 5, 8 and relative growth followed. P=NS for PD-1 vs PPV->PD1, 0.04 for PD-i vs SMV32->PD-1.
Finally, as a rigorous test of anti-hypoxia agents as immuno-sensitizers of model tumors grown in mice, we next tested the PD-1 blockade resistant tumor model Lewis Lung Carcinoma (LLC). These tumors have been reported to be refractory to even full dose (200 ug/mouse) PD-1 blocking antibody.

[10] = system: CD8 T cells in MC38 tumors; experiment: multispectral immunophenotyping of tumor infiltrating lymphocytes in MC38 tumors; format: in vivo, mouse; conditions: 2 mg/kg IV days 8, 10, 13; tumors harvested day 15
Protocol: Panel A Tumor infiltrating immune cells isolated from Day 15 MC38 tumors (n=4/g) were stained for lineage (CD45, CD3, CD8, […], and CD11b) and T cell exhaustion (PD1, Tim3, Slamf6, TOX, Tcf1, CD44, CD62L, CTLA4, Lag-3, Klrg1, T-bet, and Ki-67) (93-96). Cells were analyzed by Cytek Aurora multi-spectral FACS, and Umap generated based on concatenated file from each 4 FSC files without variation in cell number. Limp figure was generated by OMIQ with CD8 T cells (CD45+, CD3+, CD8+, CD11b−, CD4−). CD8 population was divided into 15 clusters based on T cell markers. Expression signatures marked (ovals) show progenitor exhausted T cells and terminally exhausted T cells. Panel B Statistical significance of clusters between control and SMV32 treated group were assessed by edgeR and SAM (n=4 mice per group).
In order to determine a mechanism by which reduction in hypoxia enhances immune function in the solid tumor, we undertook an investigation with multi spectral immunophenotyping. This technology uses 36 different markers simultaneously to characterize immune cell infiltrate in tumors. We performed this analysis on heterotopic NIC38 murine colorectal carcinoma tumors grown in immune-competent C57BI6 mouse strain. A cohort of tumor bearing mice were randomized to be treated with either IV delivery of vehicle control, or either PPV or SMV32. […]

[11] = system: cells; experiment: in vitro washout experiments; format: cell-based; conditions: initial studies

Structure (SMILES): O=[N+]([O-])c1ccc(O)c([N+](=O)[O-])c1 [2,4-DNP, 2,4-dinitrophenol]
increase of photon flux compared to baseline ([1]; single intraperitoneal dose of 20 mg/kg): 1.6 ×

Structure (SMILES): O=C(O)C(Cl)Cl [DCA, Dichloroacetate]
increase of photon flux ([1]; intraperitoneal 75 mg/kg): 1.8 ×

Structure (SMILES): CC(C)C[C@@H](C=O)NC(=O)[C@H](CC(C)C)NC(=O)[C@H](CC(C)C)NC(=O)OCc1ccccc1 [MG132] (Cbz-Leu-Leu-Leu-aldehyde)
increase in pODD-Luc activity compared to 24 h hypoxia [2]: 70 fold
induction of pODD-Luc activity compared to normoxia [2]: 377 fold

PDE inhibition IC25 [3]: 0.5 µM
PDE10A inhibitor selectivity ([3]; vs C1): relatively pure
Structure (SMILES): COc1cc2ccnc(Cc3cc(C)cc(C)c3)c2cc1OC [SMV23]

PDE inhibition IC25 [3]: 13.4 µM
washout from cells [11]: does not wash out of cells
Structure (SMILES): COc1cc2ccnc(Cc3cccc4ccccc34)c2cc1OC [SMV32]
photon flux compared to PPV treated mice [4]: trended to longer duration of action and lower luciferase activity at 6 hours
effect on PD-1 blockade ([5]; 2 mg/kg iv 16 hours prior to suboptimal anti PD-1 (100 μg ip every 3 days)): enhance the effectiveness of suboptimal PD-1 blockade
tumor growth, compound alone ([5]; repeated dosing, no antibody): no effect on tumor growth
mitochondrial activity [6]: retain mitochondrial activity
C1 inhibitor selectivity [6]: relatively pure
radiation response [7]: increase radiation response of murine tumors
tumor hypoxia [7]: reduce tumor hypoxia
tumor growth delay ([8]; given 16 hours prior to sub-optimal anti-PD-1, days 10 and 13): significant tumor growth delay
comparison with PPV for sensitizing tumors to PD-1 blockade ([8]; same dose as PPV): superior to PPV
comparison with PPV for sensitizing tumors to PD-1 blockade ([9]; resistant LLC tumors): superior to PPV
therapeutic effect, compound first and PD-1 antibody second ([9]; treated on days 5, 8): significant growth inhibition
exhausted CD8 T cell populations [10]: shift from terminal (known to be non-functional) to progenitor cells

Structure (SMILES): COc1ccc(OCc2nccc3cc(OC)c(OC)cc23)cc1OC [SMV37]
mitochondrial activity [6]: retain mitochondrial activity
C1 inhibitor selectivity [6]: relatively pure
radiation response [7]: increase radiation response of murine tumors
tumor hypoxia [7]: reduce tumor hypoxia

Structure (SMILES): CC(C)C[C@H](NC(=O)[C@H](Cc1ccccc1)NC(=O)c1cnccn1)B(O)O [bortezomib]
photon flux ([1]; 1 mg/kg intraperitoneally, 2 hours post injection): significant increase of photon flux
